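Where inhibition never reached the appropriate level, the endpoint shown equals the highest concentration tested. Otherwise, values were interpolated linearly from a five-concentration, 48-hour dose response in 96-well plates. TGI marks complete inhibition of growth.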
Experiments:
Assay in all cases: NCI tumour cell line growth inhibition, 48 h
SNB-19 CNS = test system: SNB-19 CNS
SW-620 colon = test system: SW-620 colon
A549 NSCLC = test system: A549 NSCLC
NCI/ADR-RES ovarian = test system: NCI/ADR-RES ovarian
NCI-H460 lung = test system: NCI-H460 lung
HS 578T breast = test system: HS 578T breast
SR leukemia = test system: SR leukemia
MDA-MB-435 = test system: MDA-MB-435
LOX IMVI melanoma = test system: LOX IMVI melanoma
NCI-H522 lung = test system: NCI-H522 lung
SK-MEL-5 melanoma = test system: SK-MEL-5 melanoma
PC-3 prostate = test system: PC-3 prostate
ACHN renal = test system: ACHN renal
NCI-H23 lung = test system: NCI-H23 lung
SNB-75 CNS = test system: SNB-75 CNS
BT-549 breast = test system: BT-549 breast
T-47D breast = test system: T-47D breast
SF-539 CNS = test system: SF-539 CNS
RXF 393 renal = test system: RXF 393 renal

SMILES | TGI (SNB-19 CNS) [µM] | TGI (SW-620 colon) [µM] | TGI (A549 NSCLC) [µM] | TGI (NCI/ADR-RES ovarian) [µM] | TGI (NCI-H460 lung) [µM] | TGI (HS 578T breast) [µM] | TGI (SR leukemia) [µM] | TGI (MDA-MB-435) [µM] | TGI (LOX IMVI melanoma) [µM] | TGI (NCI-H522 lung) [µM] | TGI (SK-MEL-5 melanoma) [µM] | TGI (PC-3 prostate) [µM] | TGI (ACHN renal) [µM] | TGI (NCI-H23 lung) [µM] | TGI (SNB-75 CNS) [µM] | TGI (BT-549 breast) [µM] | TGI (T-47D breast) [µM] | TGI (SF-539 CNS) [µM] | TGI (RXF 393 renal) [µM]
CCC[C@H](O)[C@@H](CNc1cc(NC(C)=O)nc(NC(C)=O)n1)N(Cc1ccccc1)Cc1ccccc1 | > 100 | > 100 | 72.1 | 73.3 | > 100 | > 100 | > 100 | > 100 | > 100 | 27.2 | > 100 | 33.5 | 56.8 | 58.4 | 34.8 | 35.9 | – | – | –
C=C[C@@H](OCOCC[Si](C)(C)C)[C@@H](CC)OC(CCCOC(=O)C(C)(C)C)OC (some centres undefined) | 32.3 | 70.1 | > 100 | > 100 | > 100 | 99.5 | > 100 | > 100 | – | – | > 100 | > 100 | > 100 | > 100 | > 100 | – | 56.5 | – | –
COc1ccc(-c2cnoc2-c2ccc(OC)c(OC)c2)cc1OC | 98.6 | > 37.5 | > 44.8 | – | 19.8 | – | – | – | 5.22 | 2.1 | 6.71 | – | > 74.2 | 3.97 | 6.53 | – | – | 3.3 | –
CCC(CC)C(=O)OC[n+]1ccc(-c2c(COC(=O)NC(C)C)c(COC(=O)NC(C)C)c3n2CCC3)cc1 | > 100 | > 100 | > 100 | > 100 | – | > 100 | > 100 | – | – | > 100 | > 100 | > 100 | – | > 100 | – | > 100 | – | > 100 | > 100
CC1C2=C(CC(C)(C)CC2=O)NC2=C1C(=O)CC(C)(C)C2 | > 100 | > 100 | > 100 | > 100 | > 100 | > 100 | > 100 | – | > 100 | – | > 100 | > 100 | > 100 | > 100 | > 100 | > 100 | – | > 100 | –
NC(=O)c1cc(-c2ccc(-n3ccnc3)cc2)n[nH]c1=O | > 100 | > 100 | > 100 | – | > 100 | > 100 | > 100 | > 100 | – | > 100 | > 100 | > 100 | > 100 | > 100 | > 100 | > 100 | – | > 100 | > 100
CC1(c2cccc3c2C2(O)C=CC4(CCC32)OCCO4)OCCO1 (centres undefined) | > 100 | > 100 | > 100 | – | > 100 | – | – | – | > 100 | > 100 | > 100 | – | > 100 | > 100 | > 100 | – | – | > 100 | > 100
O=C1CSC(/C(=C/c2ccccc2)c2nc3ccccc3[nH]2)=N1 | > 100 | > 100 | > 100 | – | > 100 | – | > 100 | – | > 100 | > 100 | 38.3 | – | > 100 | 92.7 | 50.7 | – | – | 74.4 | –
O=S1(=O)NNC(=NCc2ccc(Cl)c(Cl)c2)c2ccccc21 | > 100 | > 100 | > 100 | – | > 100 | – | 47.1 | – | > 100 | – | > 100 | – | > 100 | – | – | – | – | > 100 | > 100
CC1(C)CC(=O)/C(=C/C2CCNC2=S)C(=O)N1 (centres undefined) | > 100 | > 100 | > 100 | > 100 | > 100 | > 100 | > 100 | > 100 | > 100 | > 100 | > 100 | > 100 | > 100 | > 100 | > 100 | – | > 100 | > 100 | –
Cc1ccc(N/C(Sc2ccccc2)=C(/C(Cl)=C(Cl)Cl)[N+](=O)[O-])c(C)c1 | 54 | 36.7 | > 81.5 | 70.4 | 32.7 | > 100 | > 100 | 27.7 | 28.2 | 42.9 | 81.7 | 36.1 | > 100 | 68.7 | – | 29.1 | – | 45.4 | –
C=C(C)C#CC(O)(C(=O)OC1CCN(C)CC1)C(C)C (centres undefined) | > 100 | > 100 | > 100 | 85.6 | – | – | > 100 | > 100 | > 100 | > 100 | > 100 | > 100 | > 100 | > 100 | > 100 | – | > 100 | > 100 | > 100
Cc1nc(Cl)c2sc(=S)n(-c3ccc(F)cc3)c2n1 | 5.06 | 14.1 | 25.4 | 25.5 | 26.5 | 6.24 | 2.99 | 8.68 | 3.61 | 10.9 | 10.3 | 36.8 | 26.8 | 2.52 | 18.1 | 12.1 | – | – | 21.1
COc1cc2cc[n+](C)c(Cc3ccccc3)c2cc1OC | > 100 | > 100 | > 100 | – | > 100 | – | – | – | > 100 | > 100 | > 100 | – | > 100 | > 100 | > 100 | – | – | > 100 | > 100
C=CCN1C(=O)CC1N(CC=C)S(=O)(=O)c1ccc(C)cc1 (centres undefined) | > 100 | > 100 | > 100 | > 100 | > 100 | > 100 | > 100 | > 100 | > 100 | > 100 | > 100 | > 100 | > 100 | > 100 | – | > 100 | – | – | > 100
CNC(C)Cc1ccccc1O (centres undefined) | > 100 | > 100 | > 100 | – | > 100 | – | > 100 | – | > 100 | > 100 | > 100 | – | > 100 | > 100 | > 100 | – | – | > 100 | > 100
CCCCC1Cc2ccccc2-c2n1c1ccccc1[n+]2C (centres undefined) | – | > 100 | – | > 100 | > 100 | 81.5 | 58.5 | > 100 | 62.3 | 27.9 | 18 | 43 | > 100 | 42.5 | – | – | 7.3 | > 100 | > 100
CCN(CC)CCNc1ccc2ncn3c4c(OC)ccc(OC)c4c(=O)c1c23 | 58.7 | 18.2 | 54.4 | 31.1 | 31.3 | – | 43.6 | – | – | 44.2 | 31.4 | – | > 100 | 75.5 | 23.3 | – | > 100 | 44.1 | 10.3
Oc1[nH]c2ccccc2c1N=NC(=S)N1CCCCC1 | 12.5 | 8.63 | 3.44 | 0.635 | 2.29 | – | 4.31 | 4.58 | 3.2 | 15.5 | 1.03 | 10.3 | 5.97 | 9.14 | 6.71 | – | 20 | 1.49 | 2.65
COc1ccc(N(C)CN(C)c2nc(N(C)C)nc(N(C)C)n2)cc1 | > 100 | > 100 | > 100 | – | > 100 | – | > 100 | – | > 100 | > 100 | > 100 | – | > 100 | > 100 | > 100 | – | – | > 100 | –
COc1cccc(/C(CC(O)(C(F)(F)F)C(F)(F)F)=N\N(C)C)c1 | > 100 | > 100 | > 100 | > 100 | > 100 | > 100 | > 100 | > 100 | > 100 | > 100 | > 100 | > 100 | > 100 | > 100 | > 100 | – | > 100 | > 100 | > 100
COC1(C(C)(C)C)C=C(C(C)(C)C)P(=O)(O)O1 (centres undefined) | > 100 | > 100 | > 100 | > 100 | > 100 | > 100 | > 100 | > 100 | > 100 | > 100 | > 100 | > 100 | > 100 | > 100 | > 100 | – | > 100 | > 100 | –
CCN(CC)c1ccc2c(c1)OC(=O)C(c1nnc(-c3ccc([N+](=O)[O-])cc3)o1)C2 (centres undefined) | > 100 | > 100 | > 100 | > 100 | > 100 | > 100 | – | > 100 | > 100 | > 100 | > 100 | > 100 | > 100 | > 100 | > 100 | > 100 | – | – | > 100
NCCC(=O)N[C@H](Cc1cc(O)c(O)c(SCC(NC(=O)CC[C@H](N)C(=O)O)C(=O)NCC(=O)O)c1)C(=O)O (some centres undefined) | > 50 | > 50 | > 50 | > 50 | > 50 | – | – | > 50 | – | > 50 | > 50 | > 50 | > 50 | > 50 | > 50 | > 50 | – | – | > 50
